In patent publication US20100168112A1, “2-Substituted and 4-substituted aryl nitrone compounds” (RENOVIS, INC., priority 2004, published 2010):

Assays:
[1] = Microsomal stability in rat liver microsomes; assay type: in vitro ADME; conditions: rat liver microsomes 0.5 mg/ml, 1 mM NADPH, ~500 ng/ml compound, 37° C.
Procedure: Frozen Sprague-Dawley rat liver microsomes (RLM) were thawed on ice and gently mixed before use. The final reaction mixture consisted of a nitrone compound of this invention (at ˜500 ng/ml), 1 mM NADPH, and 0.5 mg/ml of RLM protein in 0.1 M PBS (pH7.4), with organic solvent concentration not exceeding 1% (v/v). Per set of incubations, a positive control compound was included. The mixture was first pre-incubated 3 to 5 minutes at 37° C. without NADPH, and the reaction was then initialized by the addition of NADPH and incubated at 37° C. for up to 30 minutes. An aliquot of the reaction mixture was sampled at the initiation of the reaction and at designated time after reaction started. The drawn samples were quenched with acetonitrile, diluted with mobile phase to ensure the detection of test article in the linear range, and analyzed by LC/MS/MS. Half-life or percentage of remaining nitrone compound was calculated using standard methods. A similar method, or a slight variation of it, was used to test the stability of nitrones in human liver microsomes (HLM).

CCI rats = assay: Mechanical allodynia in mononeuropathic pain model (chronic constrictive injury, CCI, Bennett model); assay type: in vivo, SD rats; conditions: for PWT ipsilateral hind paw (von Frey): 50 mg/kg p.o. single dose, mean ± SEM; for anti-allodynic effect on ipsilateral hind paw vs vehicle (in words): single dose 50 mg/kg, p.o.
Text: Adult male SD rats weighing 250-300 gm (Charles River Laboratories, San Diego, Calif.) were used. The animal room was lighted artificially at a 12-hr light-dark cycle (7:00 A.M. to 7:00 P.M) with water and food supply ad libitum. Animals were allocated randomly into groups. Seven days before establishing the mononeuropathic pain disease model, rats were trained on a metal mesh floor, covered with a plastic box (10×10×18 cm) 1-2 hr per day to habituate. During the habituating phase, non-painful tactile stimulation on the plantar surface of each hind paw was induced by a set of calibrated von Frey filaments, through the mesh floor, as described in example 2.
Following the 7-day training phase, the animals were anesthetized by i.p. injection of sodium pentobarbital (65 mg/kg, Abbott Lab, Chicago, Ill.). Under aseptic procedures, the skin of the left thigh was cut open for ˜2 cm. Mid-thigh level of the common sciatic nerve was exposed after blunt separation of the muscles. Two 4-0 silk and one 4-0 chromic gut sutures (both from Ethicon, Somerville, N.J.) were loosely ligated around the nerve, with a 1-1.5 mm interval between each of them. Skin wound was then close with wound clips. The right side (i.e., the contralateral side) was not surgically injured. After recovery from surgery, rats showing post-surgery neurological deficits or poor grooming were excluded from the experiments. This surgical procedure (i.e., chronic constrictive injury, CCI, or Bennett model) to establish mononeuropathic pain disease model has been described elsewhere (Bennett, G. J. and Xie, Y. K.: A peripheral mononeuropathy in rat that produces disorders of pain sensation like those seen in man. Pain, 33: 87-107, 1988).
On days 1, 3, 4, 7, 9, 11, and 14 after surgery, animals were tested for mechanical allodynia with von Frey filaments as described previously. On or around post-surgical day 14, the ipsilateral hind paw, felt to 5 grams, an indication of allodynia began to manifest mechanical allodynia (i.e., amplified response to non-painful tactile stimulation by von Frey filaments). The contralateral hind paws remained above the 5-gram level (i.e., no allodynia).
After manifestation of this allodynia, Compound 62 (50 mg/kg, p.o.), Compound 63 (50 mg/kg, p.o.), Compound 66 (50 mg/kg, p.o.), Compound 23 (50 mg/kg, p.o.), 4-hydroxy-tempol (TEMPOL, 50 mg/kg, p.o.), or piroxicam (a COX1 inhibitor, 50 mg/kg, p.o.) were administered to randomly-assigned animals. Changes of mechanical allodynia in the ipsilateral hind paw were recorded at several time points over the course of up to 24 hr.

[2] = system: carrageenan-sensitized inflammatory model of rat; assay: Carrageenan-sensitized thermal hyperalgesia (Hargreaves test); assay type: in vivo; conditions: 50 mg/kg oral; for PWL (thermal paw withdrawal latency), carrageenan paw: mean ± SEM
Procedure: In this experiment, animals were habituated to the test environment for 2 days. Each rat was individually placed on a transparent perplex glass floor, covered with a plastic box (10×10×18 cm), and allowed 0.5-1 hr to habituate. After the acclimation period, basal thermal withdrawal latency (PWL, time interval between heat stimulation and paw withdrawal) was measured by exposing the plantar surface of a rats hind paw to a beam of radiant heat generated from a focused projection bulb through a transparent perplex glass surface (Hargreaves test; Hargreaves, K. R., Dubner, R., Brown, F., Flores, C. & Joris, J.: A new and sensitive method for measuring thermal nociception in cutaneous hyperalgesia. Pain, 32: 77-88, 1988). The PWL was averaged from at least two trials separated by a 2 min interval. A timer was used to measure the withdrawal latency and a cut of time of 20-sec was used to prevent tissue damage. Before the test on STZ-diabetic rats, the intensity of the radiating heat was adjusted to the level that caused naive animal to withdraw its paw at around 10 seconds.
After a stable basal PWL was obtained, the animals were briefly anesthetized with isoflurane (2-5% to effect). One side of their hind paws received an intraplantar injection of lambda carrageenan (2 mg in 100 microliter sterile saline, Sigma, St. Louis, Mo.). The contralateral side received no injection and served as an intra-subject control. The animals were then returned to their home cages and transferred to the individual testing chambers for heat thermal hyperalgesic testing, 2.5 hr after carrageenan injection. 3-hr post-carrageenan injection, PWLs of both hind paws (i.e., ipsilateral and contralateral) were measured at several time points post-carrageenan injection (15-min to 24-hr).
For compound testing, rats were randomly enrolled into groups that, immediately after the 3-hr post-carrageenan PWL was obtained, received oral dosing of Compound 62 (50 mg/kg), Compound 63 (50 mg/kg), vehicle (1 ml/kg), or indomethacin (30 mg/kg). Compound 62 and Compound 63 were prepared as a suspension in vehicle (96% of 0.5% CMC and 4% of 10% Tween 80) while indomethacin was prepared as a 30 mg/ml in normal saline.

[3] = post-dosing time −15 min (pre-dose)
[4] = post-dosing time 0 min (3 hr post-carrageenan)

% of Nitrone Remaining at 30 min (Rat) [1] [%]	SMILES	PWT ipsilateral hind paw (von Frey) (CCI rats; post-dosing time 5 min) [gm]	PWT ipsilateral hind paw (von Frey) (CCI rats; post-dosing time 120 min) [gm]	PWT ipsilateral hind paw (von Frey) (CCI rats; post-dosing time 240 min) [gm]	PWT ipsilateral hind paw (von Frey) (CCI rats; post-dosing time 360 min) [gm]	PWT ipsilateral hind paw (von Frey) (CCI rats; post-dosing time 1440 min) [gm]	PWT ipsilateral hind paw (von Frey) (CCI rats; [3]) [gm]	anti-allodynic effect on ipsilateral hind paw vs vehicle (in words) (CCI rats)	effect on carrageenan-sensitized heat hyperalgesia compared to vehicle-treated carrageenan-paw (in words) [2]	PWL (thermal paw withdrawal latency), carrageenan paw [2, 4] [s]	PWL (thermal paw withdrawal latency), carrageenan paw ([2]; post-dosing time 15 min) [s]	PWL (thermal paw withdrawal latency), carrageenan paw ([2]; post-dosing time 120 min) [s]	PWL (thermal paw withdrawal latency), carrageenan paw ([2]; post-dosing time 240 min) [s]	PWL (thermal paw withdrawal latency), carrageenan paw ([2]; post-dosing time 1400 min) [s]	PWT ipsilateral hind paw (von Frey) (CCI rats; post-dosing time 30 min) [gm]	PWT ipsilateral hind paw (von Frey) (CCI rats; post-dosing time 60 min) [gm]	PWT ipsilateral hind paw (von Frey) (CCI rats; post-dosing time 300 min) [gm]	PWL (thermal paw withdrawal latency), carrageenan paw ([2]; post-dosing time 60 min) [s]	PWL (thermal paw withdrawal latency), carrageenan paw ([2]; post-dosing time 180 min) [s]
100	CC(C)(C)/[N+]([O-])=C/c1ccc(S(C)(=O)=O)cc1 [Compound 62, N-tert-Butyl-C-[4-(methanesulfonyl)phenyl]nitrone]	2.86 ± 0.94	16.71 ± 3.44	15.14 ± 3.90	5.46 ± 1.46	3.43 ± 1.02	3.17 ± 1.10	rapid onset but short-lasting anti-allodynic effect	statistically significant effect	4.65 ± 0.63	7.33 ± 1.43	7.55 ± 1.08	5.38 ± 1.11	5.33 ± 1.09	–	–	–	–	–
–	CC(C)(C)/[N+]([O-])=C/c1ccccc1S(C)(=O)=O [Compound 66, N-tert-Butyl-C-(2-methanesulfonylphenyl)nitrone]	–	–	–	–	1.57 ± 0.23	1.97 ± 0.84	no significant anti-allodynic effect	–	–	–	–	–	–	5.33 ± 0.42	4.12 ± 0.91	5.33 ± 1.12	–	–
–	CC(C)(C)/[N+]([O-])=C/c1ccc(S(=O)(=O)N2CCOCC2)cc1 [Compound 23, N-(tert-Butyl)-C-[4-(morpholine-4-sulfonyl)phenyl]nitrone]	–	–	–	–	4.67 ± 0.84	2.43 ± 0.54	statistically significant anti-allodynic effects	–	–	–	–	–	–	7.67 ± 0.80	8.17 ± 1.52	4.43 ± 1.35	–	–
97	CC(C)(C)/[N+]([O-])=C/c1ccc(S(C)(=O)=O)cc1S(C)(=O)=O [Compound 63, N-tert-Butyl-C-(2,4-bis-methanesulfonylphenyl)nitrone]	–	–	–	–	3.60 ± 1.30	3.88 ± 0.97	produced anti-allodynic effects on ipsilateral hind paws	statistically significant effect	4.98 ± 0.85	4.93 ± 1.22	–	–	5.70 ± 0.71	18.4 ± 10.42	18.8 ± 11.29	5.20 ± 1.63	4.15 ± 1.04	3.65 ± 0.64
100	CCS(=O)(=O)c1ccc(/C=[N+](\[O-])C(C)(C)C)c(S(=O)(=O)CC)c1 [Compound 64, N-tert-Butyl-C-(2,4-bis-ethanesulfonylphenyl)nitrone]	–	–	–	–	–	–	–	–	–	–	–	–	–	–	–	–	–	–
